Data published in patent publication US8486991B2, “Enantiomerically pure phosphoindoles as HIV inhibitors” (Idenix Pharmaceuticals, Inc., priority 2006, dated 2013).
Like-named read-outs stand apart in the source and are kept apart here. *1 amine or outer side, *2 acyl side, *3 side chain or, on linkers, in order; H or OH if unused. Where a SMILES comes first, the peptide text is derived from it. Bridges are numbered along the chain shown (N, C = ends). Roman numbers before positions name the chains, in order. [ ]: non-standard residue; d: D form. Actinocin(9to1) = Cc1c2oc3c(C)ccc(C(=O)[*:1])c3nc-2c(C(=O)[*:2])c(N)c1=O; NMeV = CN[C@H](C(=O)O)C(C)C; Sar = CNCC(=O)O

Tests used:
HIV-2 ROD = HIV-2 ROD WT in H9 cell assay; format: cell-based; conditions: Human immunodeficiency virus 2, H9; Table 18; highest concentration assayed 1.25 μM; read-out: EC50 Values
Experimental: The susceptibility of HIV type 2 ROD in H9 cells to Compound I and Compound III was determined against zidovudine (AZT) as a control.

[1] = biological target: human DNA polymerase beta (Homo sapiens, UniProt P06746); test: Human cellular DNA polymerase beta assay; format: biochemical
Source text: (§1) HIV RT, like other viral polymerase, shares limited structural homology with the cellular DNA polymerases responsible for normal nuclear and mitochondrial DNA synthesis and repair. This raises the formal possibility that inhibitors of HIV RT might inhibit cellular polymerases, resulting in cellular toxicity. In particular, inhibition of polymerase gamma has the potential to result in mitochondrial toxicity. The ability of Compound I and Compound III to inhibit cellular DNA polymerases was assessed using standard in vitro assays (Table 5).

[2] = biological target: T1, human DNA polymerase alpha (Homo sapiens, UniProt P09884); test: Human cellular DNA polymerase alpha assay; format: biochemical
T1 sequence (P09884 1-1462): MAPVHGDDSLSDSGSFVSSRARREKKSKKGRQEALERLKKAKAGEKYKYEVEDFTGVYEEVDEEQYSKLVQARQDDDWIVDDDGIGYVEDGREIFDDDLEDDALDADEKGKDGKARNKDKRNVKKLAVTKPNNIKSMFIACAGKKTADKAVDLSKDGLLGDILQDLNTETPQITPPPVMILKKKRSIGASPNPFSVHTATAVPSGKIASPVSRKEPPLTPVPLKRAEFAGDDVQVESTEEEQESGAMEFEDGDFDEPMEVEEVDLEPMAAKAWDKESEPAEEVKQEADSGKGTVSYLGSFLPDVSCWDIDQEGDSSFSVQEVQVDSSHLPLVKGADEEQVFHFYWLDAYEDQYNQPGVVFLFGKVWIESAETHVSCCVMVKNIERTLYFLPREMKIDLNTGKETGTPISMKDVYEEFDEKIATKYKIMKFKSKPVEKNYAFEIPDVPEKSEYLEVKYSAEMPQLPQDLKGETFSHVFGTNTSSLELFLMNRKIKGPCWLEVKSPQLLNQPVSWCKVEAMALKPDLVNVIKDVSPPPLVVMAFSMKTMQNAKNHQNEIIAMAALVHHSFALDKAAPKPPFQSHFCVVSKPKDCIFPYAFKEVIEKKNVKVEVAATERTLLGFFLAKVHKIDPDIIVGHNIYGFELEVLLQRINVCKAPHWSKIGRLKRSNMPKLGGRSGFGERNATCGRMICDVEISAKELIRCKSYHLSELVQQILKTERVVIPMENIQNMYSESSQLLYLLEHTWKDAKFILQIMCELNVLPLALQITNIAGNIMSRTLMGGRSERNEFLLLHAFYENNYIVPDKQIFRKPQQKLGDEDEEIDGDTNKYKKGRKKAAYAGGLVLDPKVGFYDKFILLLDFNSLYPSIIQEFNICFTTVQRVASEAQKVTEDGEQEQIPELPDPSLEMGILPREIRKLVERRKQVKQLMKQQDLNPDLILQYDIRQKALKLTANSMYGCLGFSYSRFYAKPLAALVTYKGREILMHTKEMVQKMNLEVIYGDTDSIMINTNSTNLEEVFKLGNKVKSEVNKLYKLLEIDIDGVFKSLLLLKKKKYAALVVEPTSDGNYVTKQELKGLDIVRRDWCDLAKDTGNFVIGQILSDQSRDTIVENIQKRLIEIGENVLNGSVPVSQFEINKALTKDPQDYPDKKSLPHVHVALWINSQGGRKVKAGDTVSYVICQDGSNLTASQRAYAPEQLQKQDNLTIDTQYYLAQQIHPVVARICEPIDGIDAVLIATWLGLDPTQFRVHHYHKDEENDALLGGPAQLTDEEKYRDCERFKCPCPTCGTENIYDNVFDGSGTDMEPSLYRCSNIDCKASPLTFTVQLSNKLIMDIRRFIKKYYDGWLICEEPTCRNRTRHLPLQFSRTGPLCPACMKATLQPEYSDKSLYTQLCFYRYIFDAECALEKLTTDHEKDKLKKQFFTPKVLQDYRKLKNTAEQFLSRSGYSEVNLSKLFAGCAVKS
Source text: as §1

[3] = biological target: T2, human DNA polymerase gamma (Homo sapiens, UniProt P54098); test: Human cellular DNA polymerase gamma assay; format: biochemical
T2 sequence (P54098 1-1239): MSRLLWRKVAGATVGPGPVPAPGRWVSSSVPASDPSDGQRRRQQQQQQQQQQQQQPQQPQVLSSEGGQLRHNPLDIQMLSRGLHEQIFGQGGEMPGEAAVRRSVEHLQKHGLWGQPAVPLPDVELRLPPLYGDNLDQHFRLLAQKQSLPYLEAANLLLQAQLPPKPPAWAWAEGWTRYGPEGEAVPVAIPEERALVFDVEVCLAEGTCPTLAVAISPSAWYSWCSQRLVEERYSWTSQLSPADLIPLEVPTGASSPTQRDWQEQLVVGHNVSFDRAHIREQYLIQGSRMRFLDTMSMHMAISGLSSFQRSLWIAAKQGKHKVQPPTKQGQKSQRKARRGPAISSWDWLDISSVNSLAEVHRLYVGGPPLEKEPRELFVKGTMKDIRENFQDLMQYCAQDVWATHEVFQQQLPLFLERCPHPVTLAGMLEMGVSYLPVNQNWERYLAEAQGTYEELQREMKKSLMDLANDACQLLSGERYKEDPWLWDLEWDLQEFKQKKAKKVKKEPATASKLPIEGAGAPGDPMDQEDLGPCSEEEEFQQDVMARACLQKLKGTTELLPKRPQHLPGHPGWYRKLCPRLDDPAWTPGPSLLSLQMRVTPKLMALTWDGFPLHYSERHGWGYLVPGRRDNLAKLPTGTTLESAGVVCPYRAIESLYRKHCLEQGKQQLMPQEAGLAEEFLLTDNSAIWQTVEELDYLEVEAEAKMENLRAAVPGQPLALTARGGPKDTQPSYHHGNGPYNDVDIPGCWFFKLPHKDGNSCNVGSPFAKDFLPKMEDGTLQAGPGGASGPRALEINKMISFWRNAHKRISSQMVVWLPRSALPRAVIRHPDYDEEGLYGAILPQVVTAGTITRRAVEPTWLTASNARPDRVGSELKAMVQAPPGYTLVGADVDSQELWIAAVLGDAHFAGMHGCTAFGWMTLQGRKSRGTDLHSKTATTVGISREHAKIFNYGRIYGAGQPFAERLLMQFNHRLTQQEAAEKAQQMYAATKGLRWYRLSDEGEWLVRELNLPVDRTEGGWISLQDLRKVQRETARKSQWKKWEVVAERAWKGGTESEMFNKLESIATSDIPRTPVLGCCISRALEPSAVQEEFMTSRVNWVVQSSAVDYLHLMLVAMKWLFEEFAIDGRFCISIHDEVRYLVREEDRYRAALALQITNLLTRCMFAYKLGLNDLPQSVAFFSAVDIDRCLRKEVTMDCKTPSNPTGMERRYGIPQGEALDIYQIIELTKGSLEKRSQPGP
Source text: as §1

CYP3A4 = CYP3A4 (Homo sapiens, UniProt P08684); test: Recombinant CYP450 inhibition, fluorometric, CYP3A4; format: in vitro ADME; set-up: from tissue; host or cells: pooled human liver microsomes
Experimental: (§2) Compounds were assayed using recombinant human microsomal proteins with fluorometric substrates. Signal was measured with a Fusion plate reader utilizing the appropriate excitation and emission wavelength set to detect the specific metabolite: […]

CYP2D6 = CYP2D6 (Homo sapiens, UniProt P10635); test: Recombinant CYP450 inhibition, fluorometric, CYP2D6; format: in vitro ADME; set-up: from tissue; host or cells: pooled human liver microsomes; conditions: recombinant human CYP2D6 microsomal protein, read-out: percentage of inhibition at the highest concentration tested, CYP2D6
Experimental: as §2

[4] = system: HIV-1 BH10 wild-type virus; test: CPE / cell protection assay, MT-4 cells, BH10 wild-type; format: cell-based; conditions: Human immunodeficiency virus 1, MT4; Cell Protection Assay tables; unit inferred; read-out: EC50, BH10
Experimental: (§3) The activity of the compounds was also assessed with the same virus and cell type using a different assay readout based on cytopathic effect (CPE).
(§4) MT-4 cells (Source: NIH Catalog #120) were seeded onto 96-well cell culture plates (1×10^4 cells per well in 50 μL).
(§5) The final DMSO concentration in the assay was 0.5% in 120 μL. Cell cultures were then incubated at 37° C./5% CO2 for 4 days. Then, Cell Titer 96 AQueous One Solution Cell Proliferation Assay (Promega) was used to measure cell viability. Briefly, the One Solution Reagent was added directly to culture wells (20 μL/well), incubated for 5 hours, and the absorbance was recorded at 492 nm using the Sunrise Tecan Spectrophotometer.
(§6) The EC50 values were determined from the percent inhibition versus concentration data using a sigmoidal non-linear regression analysis based on four parameters with Tecan Magellan software.

[5] = system: CYP3A4 (activation of PXR in DPX2 cells); test: CYP3A4 induction screen in DPX2 cells; format: cell-based, human; conditions: extent compared with rifampicine, mifepristone, androstanol
Source text: The potential for in vitro induction of CYP3A4 was screened in DPX2 cells. The DPX2 cell line is a derivative of a human hepatocellular carcinoma cell line (HepG2) transformed with the human pregnane x receptor (PXR) and a reporter gene vector containing the enhancer region of CYP3A4. The potential for in vitro induction of CYP1A2 was screened in CYP1A2-DRE cells. The CYP1A2-DRE cell line is a stably transformed HepG2 cells with dioxin response elements (DRE) and reporter gene containing CYP1A2 promoter elements. The extent of CYP3A4 induction was determined by comparing the activation of PXR obtained with test article to that obtained with rifampicine (potent inducer), mifepristone (moderate inducer) and androstanol (weak inducer). The extent of CYP1A2 induction was determined by comparing the activation of the aryl hydrocarbon receptor (AhR) obtained with test article to that obtained with TCDD (potent inducer), omeprazole (moderate inducer), and 2-acetylaminofluorene (weak inducer).

CYP2C9 = CYP2C9 (Homo sapiens, UniProt P11712); test: Recombinant CYP450 inhibition, Luciferin-H, CYP2C9; format: in vitro ADME; set-up: from tissue; host or cells: pooled human liver microsomes; conditions: highest concentration tested 10 μM
Experimental: CYP2C9 inhibition was performed by incubating a luminogenic CYP450 substrate Luciferin-H with CYP2C9 and an NADPH regeneration system. Luminescence measured using a Fusion plate reader.

[6] = system: HIV-1 BH10 K103N mutant virus; test: microbe, parasite or virus in culture; format: cell-based; conditions: Human immunodeficiency virus 1, MT4, read-out: EC50, K103N
Experimental: as §3, §4, §5, §6

[7] = system: HIV-1 BH10 wild-type virus; test: microbe, parasite or virus in culture; format: cell-based; conditions: Human immunodeficiency virus 1, MT4, read-out: EC50, BH10, Example 16 comparative tables; unit inferred; several lines per compound
[8] = system: HIV-1 BH10 K103N mutant virus; test: microbe, parasite or virus in culture; format: cell-based; conditions: Human immunodeficiency virus 1, MT4, read-out: EC50, K103N, Example 16 comparative tables; unit inferred
[9] = Table 6, N=4, read-out: Mean IC50 Values ± Standard Deviation, DNA Pol Gamma

CYP3A4, sequence (P08684 whole entry, the tested form may be a part): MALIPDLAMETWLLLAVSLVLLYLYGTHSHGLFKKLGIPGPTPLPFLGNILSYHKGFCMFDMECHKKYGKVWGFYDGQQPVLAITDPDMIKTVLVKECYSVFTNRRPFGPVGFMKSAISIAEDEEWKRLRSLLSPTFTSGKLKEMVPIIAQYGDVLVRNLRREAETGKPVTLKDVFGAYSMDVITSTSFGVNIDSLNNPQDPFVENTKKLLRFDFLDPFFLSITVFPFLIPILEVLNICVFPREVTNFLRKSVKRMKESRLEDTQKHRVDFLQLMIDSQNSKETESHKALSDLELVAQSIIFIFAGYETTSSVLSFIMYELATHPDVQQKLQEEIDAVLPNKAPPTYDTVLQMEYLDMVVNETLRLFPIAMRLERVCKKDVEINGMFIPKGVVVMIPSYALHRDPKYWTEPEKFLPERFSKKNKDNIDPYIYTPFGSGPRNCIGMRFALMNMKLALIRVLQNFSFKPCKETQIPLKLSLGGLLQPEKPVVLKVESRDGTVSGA
CYP2D6, sequence (P10635 whole entry): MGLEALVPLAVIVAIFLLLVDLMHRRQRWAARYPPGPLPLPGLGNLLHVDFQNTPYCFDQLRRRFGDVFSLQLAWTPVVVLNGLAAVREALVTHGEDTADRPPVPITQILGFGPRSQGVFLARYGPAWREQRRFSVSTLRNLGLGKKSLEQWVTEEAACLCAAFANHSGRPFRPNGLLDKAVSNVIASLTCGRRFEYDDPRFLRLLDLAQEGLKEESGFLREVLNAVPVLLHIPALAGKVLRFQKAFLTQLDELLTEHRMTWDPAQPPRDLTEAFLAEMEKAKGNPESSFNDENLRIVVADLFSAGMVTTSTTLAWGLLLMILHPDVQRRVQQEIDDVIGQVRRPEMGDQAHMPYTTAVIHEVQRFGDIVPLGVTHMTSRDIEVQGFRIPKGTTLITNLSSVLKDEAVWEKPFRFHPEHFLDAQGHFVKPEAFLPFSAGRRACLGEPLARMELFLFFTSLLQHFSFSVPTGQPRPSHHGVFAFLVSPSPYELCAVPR
CYP2C9, sequence (P11712 whole entry, the tested form may be a part): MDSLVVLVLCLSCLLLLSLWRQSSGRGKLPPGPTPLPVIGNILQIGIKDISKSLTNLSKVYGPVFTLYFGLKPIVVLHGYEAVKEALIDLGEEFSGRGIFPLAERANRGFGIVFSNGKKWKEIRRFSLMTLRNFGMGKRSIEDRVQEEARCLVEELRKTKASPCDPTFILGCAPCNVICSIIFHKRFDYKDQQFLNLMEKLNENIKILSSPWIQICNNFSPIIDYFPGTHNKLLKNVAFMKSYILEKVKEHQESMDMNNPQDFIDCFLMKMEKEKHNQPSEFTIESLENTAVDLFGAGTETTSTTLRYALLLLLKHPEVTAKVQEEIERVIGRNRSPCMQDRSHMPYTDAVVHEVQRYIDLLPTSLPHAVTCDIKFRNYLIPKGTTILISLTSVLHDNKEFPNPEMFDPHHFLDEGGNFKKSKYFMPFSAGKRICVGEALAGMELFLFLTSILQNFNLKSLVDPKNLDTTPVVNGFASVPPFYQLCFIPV

With `Cc1cn([C@H]2C[C@H](N=[N+]=[N-])[C@@H](CO)O2)c(=O)[nH]c1=O` [AZT, zidovudine, reference compound] the EC50 (HIV-2 ROD) was 0.162 ± 0.0767 µM.

For `Cc1c2oc3c(C)ccc(C(=O)N[C@@H]4C(=O)N[C@H](C(C)C)C(=O)N5CCC[C@H]5C(=O)N(C)CC(=O)N(C)[C@@H](C(C)C)C(=O)O[C@@H]4C)c3nc-2c(C(=O)N[C@@H]2C(=O)N[C@H](C(C)C)C(=O)N3CCC[C@H]3C(=O)N(C)CC(=O)N(C)[C@@H](C(C)C)C(=O)O[C@@H]2C)c(N)c1=O` [Act. D, actinomycin D, reference compound] (I: T[dV]P[Sar][NMeV] / II: T[dV]P[Sar][NMeV]; ester I:1-I:C, II:1-II:C; linker I:N-II:N via Actinocin(9to1)), the IC50 ([1]; Table 5, read-out: Average IC50 Values ± Standard Deviation, DNA Pol Beta) was 23 ± 10.4 µM, the IC50 ([1]; Table 6, N=4, read-out: Mean IC50 Values ± Standard Deviation, DNA Pol Beta) was 23 ± 10.4 µM and the IC50 ([2]; Table 5, read-out: Average IC50 Values ± Standard Deviation, DNA Pol Alpha) was 16.1 ± 11.2 µM. The IC50 ([2]; Table 6, N=4, read-out: Mean IC50 Values ± Standard Deviation, DNA Pol Alpha) was 16.1 ± 11.2 µM, the IC50 ([3]; Table 5, preliminary data from a single experiment, read-out: Average IC50 Values, DNA Pol Gamma) was 16.9 µM and the IC50 [3, 9] was 11.8 ± 1.9 µM.

Work on “dideoxycytidine triphosphate [ddCTP, reference compound]” yielded an IC50 [3, 9] of 1.5 ± 0.6 µM.

`CO[P@@](=O)(c1cc(C)cc(/C=C/C#N)c1)c1c(C(N)=O)[nH]c2ccc(Cl)cc12` [IV, (2-carbamoyl-5-chloro-1H-indol-3-yl)-[3-((E)-2-cyano-vinyl)-5-methyl-phenyl]-(S)-phosphinic acid methyl ester] was tested, and the IC50 (CYP3A4; recombinant, highest concentration tested 10 μM, read-out: IC50, CYP3A4) was 2.96 µM, the inhibition at 10 µM (CYP2D6) was 29.1% and the EC50 [4] was 0.2 ± 0.1 nM. The “Induction, DPX2 (CYP3A4)” value [5] was “Moderate (n = 1)”, the IC50 (CYP2C9) was 3.38 µM and the EC50 [6] was 0.0003 µM.

With `CO[P@@](=O)(c1cc(C)cc(/C=C/C#N)c1)c1c(C(N)=O)[nH]c2ccc(Cl)c(F)c12` [Compound II, (2-Carbamoyl-5-chloro-4-fluoro-1H-indol-3-yl)-[3-((E)-2-cyano-vinyl)-5-methyl-phenyl]-(S)-phosphinic acid methyl ester] the EC50 [7] was 192 nM, the IC50 (CYP3A4) was 3.21 µM and the EC50 [4] was 62 ± 19 nM. It also gave an EC50 [6] of 0.277 ± 0.099 µM and an EC50 [8] of 920 nM.
